Measured values as given in the supplement of paper PMC11451515.

Tested on: NOMO1
Test: cell viability relative to DMSO control; higher = less cytotoxic
Details: 48 h
How it was run: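 Cells were incubated for 48 h at 37°C before CellTiter-Glo One luminescence was read. The cells were NOMO1 or SEM (500 cells/well) or P12-Ichikawa (1000 cells/well) leukemia cells, adapted for at least four passages in each medium and seeded in 1536-well plates (5 μl). Dosing used library compounds in DMSO applied by pin over 11 threefold points, 47 μM to 0.79 nM. Viability is the per-plate percentage of DMSO wells, with cell-free wells as background.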

[1] = HPLM + 10% dialyzed FBS, 0.000781 µM
[2] = HPLM + 10% dialyzed FBS, 0.00234 µM
[3] = HPLM + 10% dialyzed FBS, 0.00702 µM
[4] = HPLM + 10% dialyzed FBS, 0.0211 µM
[5] = HPLM + 10% dialyzed FBS, 0.0632 µM
[6] = HPLM + 10% dialyzed FBS, 0.19 µM
[7] = HPLM + 10% dialyzed FBS, 0.569 µM
[8] = HPLM + 10% dialyzed FBS, 1.71 µM
[9] = HPLM + 10% dialyzed FBS, 5.12 µM
[10] = HPLM + 10% dialyzed FBS, 15.4 µM
[11] = HPLM + 10% dialyzed FBS, 46.1 µM
[12] = RPMI 5 mM glucose + 10% FBS, 0.000781 µM
[13] = RPMI 5 mM glucose + 10% FBS, 0.00234 µM
[14] = RPMI 5 mM glucose + 10% FBS, 0.00702 µM
[15] = RPMI 5 mM glucose + 10% FBS, 0.0211 µM
[16] = RPMI 5 mM glucose + 10% FBS, 0.0632 µM
[17] = RPMI 5 mM glucose + 10% FBS, 0.19 µM
[18] = RPMI 5 mM glucose + 10% FBS, 0.569 µM
[19] = RPMI 5 mM glucose + 10% FBS, 1.71 µM
[20] = RPMI 5 mM glucose + 10% FBS, 5.12 µM
[21] = RPMI 5 mM glucose + 10% FBS, 15.4 µM
[22] = RPMI 5 mM glucose + 10% FBS, 46.1 µM
[23] = RPMI 5 mM glucose + 10% dialyzed FBS, 0.000781 µM
[24] = RPMI 5 mM glucose + 10% dialyzed FBS, 0.00234 µM
[25] = RPMI 5 mM glucose + 10% dialyzed FBS, 0.00702 µM
[26] = RPMI 5 mM glucose + 10% dialyzed FBS, 0.0211 µM
[27] = RPMI 5 mM glucose + 10% dialyzed FBS, 0.0632 µM
[28] = RPMI 5 mM glucose + 10% dialyzed FBS, 0.19 µM
[29] = RPMI 5 mM glucose + 10% dialyzed FBS, 0.569 µM
[30] = RPMI 5 mM glucose + 10% dialyzed FBS, 1.71 µM
[31] = RPMI 5 mM glucose + 10% dialyzed FBS, 5.12 µM
[32] = RPMI 5 mM glucose + 10% dialyzed FBS, 15.4 µM
[33] = RPMI 5 mM glucose + 10% dialyzed FBS, 46.1 µM

Compound	cell viability [1] [%]	cell viability [2] [%]	cell viability [3] [%]	cell viability [4] [%]	cell viability [5] [%]	cell viability [6] [%]	cell viability [7] [%]	cell viability [8] [%]	cell viability [9] [%]	cell viability [10] [%]	cell viability [11] [%]	cell viability [12] [%]	cell viability [13] [%]	cell viability [14] [%]	cell viability [15] [%]	cell viability [16] [%]	cell viability [17] [%]	cell viability [18] [%]	cell viability [19] [%]	cell viability [20] [%]	cell viability [21] [%]	cell viability [22] [%]	cell viability [23] [%]	cell viability [24] [%]	cell viability [25] [%]	cell viability [26] [%]	cell viability [27] [%]	cell viability [28] [%]	cell viability [29] [%]	cell viability [30] [%]	cell viability [31] [%]	cell viability [32] [%]	cell viability [33] [%]
COc1ccc(C(CN(C)C)C2(O)CCCCC2)cc1 (stereo not given)	101	125	124	125	115	127	120	104	124	94.5	95.3	44.9	118	122	118	113	120	104	104	107	97.2	109	46.1	111	111	117	105	104	96.4	109	97.9	111	100
Cc1cn([C@H]2C=C[C@@H](CO)O2)c(=O)[nH]c1=O	105	101	116	123	101	114	125	115	96.4	108	107	88.6	94.3	100	106	98.7	111	111	102	116	120	115	106	124	118	112	125	123	122	121	113	129	131
Cc1nc2cc(C(=O)N3CCC4(CC3)CC(=O)c3c(cnn3C(C)C)C4)ccc2[nH]1	96.7	159	125	124	116	135	134	119	112	135	60.9	118	133	116	130	129	124	123	128	135	132	94.2											
OC1=CC=C(C=C1)\C2=C\OC3=C(C(=CC(=C3)O)O)C2=O	110	112	117	120	116	122	124	113	107	137	117	108	111	107	117	104	115	108	109	112	123	110	94.7	113	99.8	110	118	117	107	108	118	115	103
COc1ccc(OC)c(-c2nnc3ccc(-c4ccc(OC)c(O[C@@H]5CCOC5)c4)nn23)c1																							123	120	140	128	137	140	134	147	137	145	98.3
O=C(CC12CC3CC(CC(C3)C1)C2)Nc1cccc2nc(NCCNCCO)ccc12	79.1	95.5	89.4	106	98	90.7	101	89.8	103	90.7	36.6	81.2	89.8	83.9	87.8	82.4	90.5	81	87.4	86.4	96.4	54.1	73.5	90.7	83.2	97.2	86.7	80.5	82.4	82.3	77.4	95.3	57.7
CCC(C)N1\N=C/N(C1=O)C2=CC=C(C=C2)N3CCN(CC3)C4=CC=C(OC[C@H]5CO[C@@](C[N]6C=NC=N6)(O5)C7=CC=C(Cl)C=C7Cl)C=C4 (stereo not given in full)	110	98.9	117	121	122	97.2	108	102	107	90.4	86	101	108	113	99.6	111	121	93.9	101	102	95.3	85.8	102	104	119	124	111	113	120	103	98.9	99.6	86.2
COc1cc2ncn(-c3cc(OCc4ccccc4[S+](C)(=O)[O-])c(C#N)s3)c2cc1OC	101	91	105	101	84	108	92.8	95.8	82.7	81.2	68.9	90.9	89.9	97	84.6	99.7	97	103	88.8	82.1	90.4	73.8	107	98.6	100	100	90.8	98.7	95.3	101	89.4	94.8	62
CC(NC(C)(C)C)C(=O)c1cccc(Cl)c1 (stereo not given)												112	124	115	120	133	127	113	115	119	128	113											
CCc1cc2c(cc1N1CCC(N3CCOCC3)CC1)C(C)(C)c1[nH]c3cc(C#N)ccc3c1C2=O	83.9	68.5	94.7	117	135	151	134	121	105	102	68.3	91.1	83.2	102	119	126	132	124	112	117	114	58.8	80.3	73.9	71.7	107	125	133	120	111	115	110	52.1
C[C@@H]1CN(Cc2ccc(F)cc2)[C@@H](C)CN1C(=O)c1cc2c(C(=O)C(=O)N(C)C)cn(C)c2cc1Cl	103	121	118	119	129	139	139	128	131	123	74.8	103	122	118	120	123	124	124	108	114	115	118	125	117	115	118	128	127	124	132	119	127	111
CCC[S+](=O)([O-])Nc1ccc(F)c(C(=O)c2c[nH]c3ncc(Cl)cc23)c1F												112	110	115	117	120	121	114	108	107	62.6	43.8	116	119	117	100	107	128	119	122	123	62.3	42.9
CCN(CC)CCOc1ccc(Cc2ccccc2)cc1	97.9	102	113	92.9	110	106	113	102	74.1	21.2	14.2	92.2	92.2	94.2	106	102	91.8	101	91.6	83.4	68.3	57	99.1	96	108	108	97.8	108	97.9	108	97.5	91.4	78.3
Cc1nn(C)c(COc2ccc(N3CCN([S+](=O)([O-])N(C)C)CC3)cc2)c1-c1cccc2c(CCCOc3cccc4ccccc34)c(C(=O)O)n(CCN3CCOCC3)c12	96.9	107	121	122	124	108	137	101	25.9	36.8	32.1	100	110	105	110	112	105	118	111	25.2	108	22.8	90.6	112	110	116	122	111	117	107	109	119	91.8
CN(C)C1=CC(=CC=C1)C\2=C\3C(=O)N(NC3=C/C(=O)N2C)C4=CC=CC=C4Cl	113	109	127	116	120	105	60.4	7.34	5.72	4.4	5.35	118	105	122	121	116	103	93	19.7	5.29	5.8	5.56	118	108	114	116	143	112	83.4	28.3	10.1	7.91	8.18
CC(C)(F)C[C@H](N[C@@H](c1ccc(-c2ccc([S+](C)(=O)[O-])cc2)cc1)C(F)(F)F)C(=O)NC1(C#N)CC1	91.5	113	111	113	108	103	107	116	111	94.6	89.8	124	136	125	124	119	116	109	115	106	97.5	102	105	125	117	121	103	108	112	109	101	101	92.3
[O-]C(=O)C/1=N/C(=O)NC(=O)N1	87.7	108	92.9	96.9	101	95.1	86.3	96.9	85.4	83.4	88.9	93.5	96.8	99.9	88.9	92.8	91.8	86.3	91.3	85.4	80.9	93.1	90.2	93.2	88.2	86.2	90.8	92.8	81.1	78.5	79.9	77	81.8
